Assay results reported in patent publication US20120083473A1, “TREATMENT OF CONDITIONS BY TOLL-LIKE RECEPTOR MODULATORS” (priority 2010, published 2012).
Entries after “also recorded” stand apart in the source; their conditions may differ.

Columns and labels:
Assay type in all cases: in vivo
[1] = Intravenous acute toxicity in mice; conditions: i.v.
[2] = PK analysis after i.v. administration in mice
[3] = test system: rat collagen-induced arthritis (CIA) model; assay: Rat collagen-induced arthritis (CIA) model; conditions: for day of definite disease onset / bone erosion score / cumulative arthritis score / cartilage erosion score / joint inflammation score / proteoglycan loss score: mean±SD; for cartilage erosion score / joint inflammation score / proteoglycan loss score: scale 0-3
Description: Collagen-induced arthritis was induced in 9 weeks old female Lewis rats using a two-steps immunization protocol. On day 0, rats were immunized by intradermal injection of approximately 1 ml of 1 mg/ml bovine type II collagen (Chondrex) emulsified in Incomplete Freund's adjuvant (Difco Laboratories) at several sites at the back. Arthritis development was accelerated by an intradermal booster immunization in the back and tail-base with 100 µg bovine type II collagen (Chondrex) in IFA (Difco Laboratories) at day 7. For immunization, rats were anesthetized by inhalation of 3-4% isoflurane in a mixture of oxygen and nitrous oxide.
Rats were evaluated 6 times per week (once during weekends) for arthritis severity using a macroscopic scoring system of 0-4 for each paw as detailed below:
0=no signs of arthritis 0.5=unloading of the paw and/or light redness of ankle joint 1=redness and mild swelling of the ankle joint 2=redness and swelling of paw 3=severe redness and swelling of entire paw including digits 4=maximally swollen paw, often involvement of multiple joints and extending toward knee joint.
The total clinical score of an individual rat is defined as the sum of the clinical scores of all four paws for each day. At the end of the study, the cumulative arthritis score was calculated for each rat. This cumulative arthritis score is defined as the sum of the total clinical scores obtained from day 0 till day 24.
The day of disease is defined as the first day of three consecutive days on which a total clinical arthritis score of more than 0 was observed.
The swelling of the hind paws was measured during weekdays with a laser scan micrometer (Mitutoyo, LSM-503S/6200). At the end of the study, the cumulative paw swelling was calculated for each rat as follows: a baseline value was determined by averaging the paw thickness values of day 0-9 when no signs of arthritis were visible in the vehicle-treated group. Next, increase in paw thickness was calculated by subtracting the baseline value from the paw thickness values obtained on day 10-24 (delta value). Cumulative paw swelling is defined as the sum of the delta paw thickness values from day 10 till 24.
Left ankle joints were decalcified in a solution of 10% EDTA in distilled water, pH 7.4 for at least two months. After a wash in running tap water for 24 hours, the joints were embedded in paraffin and cut into 5 μm sections.
Joint inflammation was scored on Haematoxylin Phloxine Saffron (HPS) stained sections. The inflammation score is based on the amount of inflammatory cells infiltrated into the joint on a scale of 0-3:
0=no inflammation 1=inflammatory cells in muscle layer (surrounding tissue) 2=infiltration of inflammatory cells in the joint 3=severe infiltration of inflammatory cells in the joint
Cartilage erosion was also scored on HPS stained sections. Erosion was scored in three compartments between tarsal bones and the tibia bone as the disappearance of cartilage or chondrocyte death on a scale of 0-3:
0=no erosion 1=erosion in 1 joint compartment 2=erosion in 2 joint compartments 3=erosion in 3 joint compartments
Proteoglycan (PG) loss was scored on Saffranin 0/Fast green-stained sections on a scale of 0-3, indicating increasing loss of staining from the cartilage tissue:
0=no PG loss 1=1-33% loss of PG staining 2=34-66% loss of PG staining 3=67%-complete loss of PG staining
Bone erosion was scored on HPS stained sections. Erosion was scored at four different locations in two compartments as the number of osteoclasts per field (average value is given in Appendix 8): […]

## COCCOc1nc(N)c2nc(O)n(Cc3ccc(C(=O)NCCOCCOCCOCCOCCOCCOCCn4cc(CCC(=O)O)nn4)cc3)c2n1 [Compound 2]
[1]
  dose up to which no toxic clinical signs were produced: up to 1000 mg/kg
[2]
  AUC in comparison with Compound 3: lower
  Cmax in comparison with Compound 3: lower
  clearance in comparison with Compound 3: higher
  half life in comparison with Compound 3: longer
[3]; 1.6 mg/kg
  day on which disease incidence of 100% was reached: 11 days
  bone erosion score: 0.63±0.17
  cumulative arthritis score: 77.3±11.9 a.u.
  cartilage erosion score: 2.09±0.65
  joint inflammation score: 2.69±0.37
  proteoglycan loss score: 2.41±0.40
[3]; 1.6 mg/kg i.p. once daily from day 10
  day of definite disease onset: 10.3 ± 0.5 days
[3]; 3.2 mg/kg
  day on which disease incidence of 100% was reached: 13 days
  bone erosion score: 0.62±0.09
  cumulative arthritis score: 83.3±12.2 a.u.
  cartilage erosion score: 2.34±0.68
  joint inflammation score: 2.66±0.33
  proteoglycan loss score: 2.53±0.21
[3]; 3.2 mg/kg i.p. once daily from day 10
  day of definite disease onset: 10.4 ± 1.1 days
[3]; 6.3 mg/kg
  day on which disease incidence of 100% was reached: 11 days
  bone erosion score: 0.69±0.13
  cumulative arthritis score: 81.1±14.6 a.u.
  cartilage erosion score: 2.06±0.65
  joint inflammation score: 2.69±0.32
  proteoglycan loss score: 2.47±0.34
[3]; 6.3 mg/kg i.p. once daily from day 10
  day of definite disease onset: 10.4 ± 0.5 days
[3]; 12.6 mg/kg
  day on which disease incidence of 100% was reached: 15 days
  cartilage erosion score: 1.81±0.91
  proteoglycan loss score: 1.97±0.59
[3]; 12.6 mg/kg i.p. once daily from day 10
  day of definite disease onset: 11.5 ± 2.0 days
[3]; 12.6 mg/kg, day 22, 23 and 24 (p=0.036, p=0.017, p=0.044)
  total clinical arthritis score versus vehicle, end of the study: statistically exceeded that of the vehicle group
[3]; 12.6 mg/kg, left ankle histology
  joint inflammation score: 2.41±0.42
[3]; 12.6 mg/kg, day 0 till day 24
  cumulative arthritis score: 77.6±19.9 a.u.
[3]; 12.6 mg/kg, osteoclast score 0-3
  bone erosion score: 0.56±0.14
[3]; 12.6 mg/kg, p=0.003 left, p=0.004 right hind paw
  cumulative hind paw swelling versus vehicle: significantly reduced; also recorded: reduction
[3]; 12.6 mg/kg, p=0.026
  proteoglycan loss versus vehicle: significantly diminished; also recorded: significant suppression
[3]; 12.6 mg/kg, significant on day 13 and 16 (p=0.018, p=0.011)
  clinical signs of arthritis / total clinical arthritis score versus vehicle, initial phase: initially suppressed
[3]; 6.3, 3.2 and 1.6 mg/kg groups
  development of clinical signs of arthritis over time: comparable to the vehicle group
[3]; 6.3, 3.2 or 1.6 mg/kg
  arthritis development compared to the vehicle group: did not significantly reduce
[3]; Compound 2 12.6, 6.3, 3.2, 1.6 mg/kg
  paw thickness: dose-dependent reduction
[3]; all Compound 2 groups (12.6, 6.3, 3.2, 1.6 mg/kg), till the end of the study
  disease incidence: 100%
[3]; different concentrations Compound 2
  body weight: decreased gradually after disease onset, which was similar to the vehicle group
[3]; highest dose level (12.6 mg/kg), therapeutic i.p. from day 10
  arthritis development: limited suppression
[3]; other Compound 2 dose groups (6.3, 3.2, 1.6 mg/kg)
  hind paw swelling versus vehicle: no significant differences
